According to patent US4190661A, “Pyrazolo-quinolines, compositions and pharmaceutical preparations” (Laboratoires Chauvin-Blache, priority 1977, dated 1980):
Converted amounts (≈) assume the structure as drawn. Read-outs that look alike come from different tables or passages of the source.

Legend:
Klebsiella pneumoniae = assay: antibacterial activity in vitro, dilution in liquid medium method (MIC/MBC); format: cell-based; conditions: read-out: minimum inhibiting concentration (MIC)
Method: (§1) The nalidixic acid solution and the solutions containing compounds of the formula (I) were prepared in distilled water with addition of sodium hydroxide.
(§2) The strains used are all obtained from the hospital where they were recently isolated from urinary infections (except Salmonella para B and Listeria which are obtained from a collection):
(§3) Different dilutions of 24 hour cultures in physiological saline were used, depending on the respective growth rate of each germ:
(§4) The test is conducted in phenol red glucose broth inoculated with 0.1 ml of the dilution of the germ studied per 3 ml of broth.
(§5) The bactericidal activity was investigated according to the dilution in liquid medium method.
(§6) After 18 hours in an oven at 37° C., the minimum inhibiting concentration (MIC) corresponding to the last tube whose pH remains unmodified was noted.
(§7) The minimum bactericidal concentration (MBC) was investigated by spreading on a dish of agar medium a dosage of material taken from the tubes which have remained clear. The MBC/24 hrs is the lowest concentration for which the survival rate is zero after a contact time of 24 hours.

Staphylococcus aureus = assay: as above; format: cell-based; conditions: read-out: minimum inhibiting concentration (MIC)
Method: as §1, §2, §3, §4, §5, §6, §7

Proteus mirabilis = assay: as above; format: cell-based; conditions: read-out: minimum inhibiting concentration (MIC)
Method: as §1, §2, §3, §4, §5, §6, §7

Pseudomonas aeruginosa = assay: as above; format: cell-based; conditions: read-out: minimum inhibiting concentration (MIC)
Method: as §1, §2, §3, §4, §5, §6, §7

Escherichia coli = assay: as above; format: cell-based; conditions: for MIC: read-out: minimum inhibiting concentration (MIC); for MBC: read-out: minimum bactericidal concentration (MBC)
Method: as §1, §2, §3, §4, §5, §6, §7

Streptococcus foecalis = assay: as above; format: cell-based; conditions: read-out: minimum inhibiting concentration (MIC)
Method: as §1, §2, §3, §4, §5, §6, §7

Salmonella para B = assay: as above; format: cell-based; conditions: for MIC: read-out: minimum inhibiting concentration (MIC)
Method: as §1, §2, §3, §4, §5, §6, §7

Citrobacter = assay: as above; format: cell-based; conditions: read-out: minimum inhibiting concentration (MIC)
Method: as §1, §2, §3, §4, §5, §6, §7

[1] = acute toxicity, graphical method according to Miller and Tainter; conditions: mouse, in vivo, mice
Source text: Indeed, their LD50 values in mice, as determined by the graphical method according to Miller and Tainter are as follows: […]

[2] = tested on: Enterobacter liquefaciens; assay: antibacterial activity in vitro, dilution in liquid medium method (MIC/MBC); format: cell-based; conditions: for MIC: read-out: minimum inhibiting concentration (MIC)
Method: as §1, §2
Enterobacter liquefaciens
as §3, §4, §5, §6, §7

Listeria monocytogenes = assay: as above; format: cell-based; conditions: for MIC: read-out: minimum inhibiting concentration (MIC); for MBC: read-out: minimum bactericidal concentration (MBC)
Method: as §1, §2, §3, §4, §5, §6, §7

Enterobacter cloacae = assay: as above; format: cell-based; conditions: for MIC: read-out: minimum inhibiting concentration (MIC)
Method: as §1, §2, §3, §4, §5, §6, §7

[3] = Streptococcus foecalis, 18 hours, 37° C.
[4] = Salmonella para B, 18 hours, 37° C.

Row | Compound | MIC (Klebsiella pneumoniae; 18 hours, 37° C.) | MIC (Staphylococcus aureus; 18 hours, 37° C.) | MIC (Proteus mirabilis; 18 hours, 37° C.) | MIC (Pseudomonas aeruginosa; 18 hours, 37° C.) | MIC (Escherichia coli; 18 hours, 37° C.) | MIC (Streptococcus foecalis; [3]) | further results
1 | CCn1cc(C(=O)O)c(=O)n2nc3ccccc3c12 [I a, 3-oxo-4-carboxy-6-ethyl-pyrimido[3,2-b]indazole] | > 100 µg/mL | > 100 µg/mL | > 100 µg/mL | > 100 µg/mL | > 100 µg/mL | > 100 µg/mL | MIC (Salmonella para B; [4]): > 100 µg/mL
2 | CCn1cc(C(=O)O)c(=O)c2c3cnn(Cc4ccccc4)c3ccc21 [I d, 1-ethyl-3-carboxy-4-oxo-7-benzyl-pyrazolo[4,5-f]quinoline] |  | > 10 µg/mL | > 10 µg/mL | > 10 µg/mL |  | > 10 µg/mL | 
3 | C=Cn1cc(C(=O)O)c(=O)c2c3[nH]ncc3ccc21 [I e', 1-Vinyl-3-carboxy-4-oxo-pyrazolo[5,4-f]quinoline] | > 10 µg/mL | > 10 µg/mL | > 10 µg/mL | > 10 µg/mL | 5 µg/mL (≈ 19.6 µM) | > 10 µg/mL | MIC (Citrobacter; 18 hours, 37° C.): > 10 µg/mL; LD50 ([1]; ip, intraperitoneal route): 2800 mg/kg; LD50 ([1]; oral route): > 5000 mg/kg
4 | CCn1cc(C(=O)O)c(=O)c2c3[nH]ncc3ccc21 [I e] | > 10 µg/mL | > 10 µg/mL | > 10 µg/mL | > 10 µg/mL | 5 µg/mL (≈ 19.4 µM) | > 10 µg/mL | MIC ([2]; Enterobacter liquefaciens, 18 hours, 37° C.): > 10 µg/mL; MIC (Citrobacter; 18 hours, 37° C.): > 10 µg/mL; MIC (Listeria monocytogenes; 18 hours, 37° C.): 10 µg/mL (≈ 38.9 µM); MBC (Listeria monocytogenes; contact time 24 hours): 100 µg/mL (≈ 389 µM); MBC (Escherichia coli; contact time 24 hours): 100 µg/mL (≈ 389 µM); MIC (Enterobacter cloacae; 18 hours, 37° C.): > 10 µg/mL; MIC (Salmonella para B; [4]): > 10 µg/mL
5 | CCn1cc(C(=O)O)c(=O)c2c3[nH]ncc3ccc21 [Ie] |  |  |  |  |  |  | LD50 ([1]; ip, intraperitoneal route): 2500 mg/kg; LD50 ([1]; oral route): 4700 mg/kg
6 | CCn1cc(C(=O)O)c(=O)c2ccc(C)nc21 [Nalidixic acid, nalidixic acid, reference compound] |  |  |  |  |  |  | MIC ([2]; Enterobacter, 18 h): 25 µg/mL (≈ 108 µM); MBC ([2]; Enterobacter, 24 h, read-out: minimum bactericidal concentration (MBC)): 100 µg/mL (≈ 431 µM); MIC (Citrobacter; 18 h): > 200 µg/mL; MIC (Klebsiella pneumoniae; 18 h): > 200 µg/mL; MIC (Staphylococcus aureus; 18 h): > 200 µg/mL; MIC (Listeria monocytogenes; 18 h): 5 µg/mL (≈ 21.5 µM); MBC (Listeria monocytogenes; 24 h): 100 µg/mL (≈ 431 µM); MIC (Proteus mirabilis; 18 h): > 200 µg/mL; MIC (Pseudomonas aeruginosa; 18 h): > 200 µg/mL; MIC (Escherichia coli; 18 h): 5 µg/mL (≈ 21.5 µM); MBC (Escherichia coli; 24 h): 100 µg/mL (≈ 431 µM); MIC (Enterobacter cloacae; 18 h): 50 µg/mL (≈ 215 µM); MBC (Enterobacter cloacae; 24 h, read-out: minimum bactericidal concentration (MBC)): 100 µg/mL (≈ 431 µM); MIC (Streptococcus foecalis; Streptococcus, 18 h): > 200 µg/mL; MIC (Salmonella para B; Salmonella, 18 h): 5 µg/mL (≈ 21.5 µM); MBC (Salmonella para B; Salmonella, 24 h, read-out: minimum bactericidal concentration (MBC)): 100 µg/mL (≈ 431 µM)

More lines, main results first:

Row | MIC (Klebsiella pneumoniae; 18 hours, 37° C.) | MIC (Staphylococcus aureus; 18 hours, 37° C.) | MIC (Proteus mirabilis; 18 hours, 37° C.) | MIC (Pseudomonas aeruginosa; 18 hours, 37° C.) | MIC (Escherichia coli; 18 hours, 37° C.) | MIC (Streptococcus foecalis; [3]) | Compound | further results
7 | > 100 µg/mL | > 100 µg/mL | > 100 µg/mL | > 100 µg/mL | > 100 µg/mL | > 100 µg/mL | CCn1cc(C(=O)O)c(=O)c2ccc3[nH]ncc3c21 [I b, 1-ethyl-3-carboxy-4-oxo-pyrazolo[5,4-h]quinoline] | MIC (Salmonella para B; [4]): > 100 µg/mL
8 | > 10 µg/mL | > 10 µg/mL | > 10 µg/mL | > 10 µg/mL | > 10 µg/mL | > 10 µg/mL | CCn1cc(C(=O)O)c(=O)c2c3cn[nH]c3ccc21 [I c, 1-Ethyl-3-carboxy-4-oxo-pyrazolo[4,5-f]quinoline] | 
9 |  | > 10 µg/mL | > 10 µg/mL | > 10 µg/mL |  | > 10 µg/mL | CCn1cc(C(=O)O)c(=O)c2c1ccc1cnn(C)c12 [I f, 1-ethyl-3-carboxy-4-oxo-5-methyl-pyrazolo[5,4-f]uinoline] | 
10 | > 100 µg/mL | > 100 µg/mL | > 100 µg/mL | > 100 µg/mL |  | > 100 µg/mL | CCn1cc(C(=O)O)c(=O)c2c3nn(C)cc3ccc21 [I g, 1-ethyl-3-carboxy-4-oxo-6-methyl-pyrazolo[3,4-f]uinoline] | 
11 | > 10 µg/mL | > 10 µg/mL | > 10 µg/mL | > 10 µg/mL |  | > 10 µg/mL | CCn1cc(C(=O)O)c(=O)c2ccc3cnn(CC)c3c21 [I h, 1,9-diethyl-3-carboxy-4-oxo-pyrazolo[4,5-h]quinoline] | 
